# Measurements as given in US10988523B2, “Modified lipidated Relaxin B chain peptides and their therapeutic use” (Sanofi, priority 2018, dated 2021).
# *1 amine or outer side, *2 acyl side, *3 side chain or, on linkers, in order; H or OH if unused. Where a SMILES comes first, the peptide text is derived from it. Side-chain parts run from the residue outwards. [ ]: non-standard residue; d: D form. The star is where a group is joined. X11 = CCCCCCCCCCCCCCCC(=O)N[C@@H](CCC(=O)NCCCC[C@H](NC(=O)CC[C@H](NC(=O)CC[C@H](NC(=O)CC[C@H](NC(=O)CCC(=O)NCCCOCCOCCOCCCNC(=O)CCC(=O)NCCCOCCOCCOCCCNC(=O)CCC(=O)NCCCOCCOCCOCCCN*)C(=O)O)C(=O)O)C(=O)O)C(N)=O)C(=O)O; X8 = CCCCCCCCCCCCCCCC(=O)N[C@@H](CCC(=O)N[C@@H](CCC(=O)N[C@@H](CCC(=O)NCCCOCCOCCOCCCNC(=O)CCC(=O)NCCCOCCOCCOCCCNC(=O)CCC(=O)NCCCOCCOCCOCCCN*)C(=O)O)C(=O)O)C(=O)O; PEG28 = NCCOCCOCCOCCOCCOCCOCCOCCOCCOCCOCCOCCOCCOCCOCCOCCOCCOCCOCCOCCOCCOCCOCCOCCOCCOCCOCCOCCOCCC(=O)O; Heptadecanoyl = CCCCCCCCCCCCCCCCC(=O)*; γGlu = O=C(O)[C@H](CCC(=O)[*:2])N[*:1]; Stearoyl = CCCCCCCCCCCCCCCCCC(=O)*; Suc = O=C(CCC(=O)[*:2])[*:1]; αMeK = C[C@](N)(CCCCN)C(=O)O; Nle = CCCC[C@H](N)C(=O)O; AEEA = NCCOCCOCC(=O)O; Aib = CC(C)(N)C(=O)O
# Biological target: T1, RXFP1 (Homo sapiens, UniProt Q9HBX9)
# T1 construct: OVCAR5 cells expressing endogenous RXFP1; endogenous in cells; host or cells: OVCAR5 cells
# T1 sequence (Q9HBX9 1-757): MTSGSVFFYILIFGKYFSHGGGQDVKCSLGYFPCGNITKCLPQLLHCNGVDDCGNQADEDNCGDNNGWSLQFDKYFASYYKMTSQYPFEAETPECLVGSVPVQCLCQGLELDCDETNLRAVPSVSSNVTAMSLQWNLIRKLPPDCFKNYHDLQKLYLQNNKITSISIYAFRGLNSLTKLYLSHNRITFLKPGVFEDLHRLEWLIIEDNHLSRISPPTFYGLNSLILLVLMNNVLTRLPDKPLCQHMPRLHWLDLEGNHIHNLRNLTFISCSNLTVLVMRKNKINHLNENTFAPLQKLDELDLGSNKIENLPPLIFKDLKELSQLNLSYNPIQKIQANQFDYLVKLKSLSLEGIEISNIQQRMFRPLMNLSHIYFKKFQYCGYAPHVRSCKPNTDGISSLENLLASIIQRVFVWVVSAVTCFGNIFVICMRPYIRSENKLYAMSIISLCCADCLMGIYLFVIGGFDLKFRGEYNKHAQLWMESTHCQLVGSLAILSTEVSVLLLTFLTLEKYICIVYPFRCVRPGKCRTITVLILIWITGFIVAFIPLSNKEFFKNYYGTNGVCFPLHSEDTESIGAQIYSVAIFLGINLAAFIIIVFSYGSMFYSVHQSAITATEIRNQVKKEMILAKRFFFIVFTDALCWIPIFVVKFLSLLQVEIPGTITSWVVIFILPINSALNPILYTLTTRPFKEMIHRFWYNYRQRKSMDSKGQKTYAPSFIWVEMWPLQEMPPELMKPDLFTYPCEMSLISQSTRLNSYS
# Assay: OVCAR5 cAMP assay (HTRF), RXFP1 agonist activity
# Format: cell-based
# Details: for EC50: OVCAR5 cells, cAMP HTRF, read-out: EC50 (nM), OVCAR 5 cells (cAMP); for Emax: OVCAR-5, maximal cAMP relative to H2-relaxin maximum (100%), read-out: EMax, OVCAR 5 cells (cAMP)
# How it was run: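 OVCAR5 cells (endogenous RXFP1) pretreated 40 min at 37° C with 1 mM IBMX, then exposed to peptides in serum-free medium for 30 min at 37° C. Lysate cAMP read by HTRF; EC50 from variable-slope sigmoidal fit; Emax as % of H2-relaxin maximal cAMP in same run.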
Compound,EC50 [nM],Emax [%]
CCCCCCCCCCCCCCCC(=O)N[C@@H](CCC(=O)N[C@@H](CCC(=O)N[C@@H](CCC(=O)NCCCOCCOCCOCCCNC(=O)CCC(=O)NCCCOCCOCCOCCCNC(=O)CCC(=O)NCCCOCCOCCOCCCNC(=O)CCC(=O)NCCCC[C@H](NC(=O)[C@H](CCCCNC(C)=O)NC(=O)[C@H](C)NC(=O)[C@H](CCCNC(=N)N)NC(=O)[C@](C)(CCCCN)NC(=O)[C@H](CO)NC(=O)[C@H](Cc1ccccc1)NC(=O)[C@@H](NC(=O)[C@H](CO)NC(=O)[C@H](CCCC)NC(=O)CNC(=O)[C@H](CCC(=O)O)NC(=O)C(C)(C)NC(=O)C(C)(C)NC(=O)[C@@H](NC(=O)[C@H](CCCCNC(C)=O)NC(=O)[C@H](C)NC(=O)[C@H](CCCNC(=N)N)NC(=O)[C@@H](NC(=O)[C@H](CCCCN)NC(=O)[C@H](CCC(=O)O)NC(=O)[C@H](CCCNC(=N)N)NC(=O)CNC(=O)[C@H](CCC(=O)O)NC(=O)[C@H](CC(C)C)NC(C)=O)C(C)C)[C@@H](C)CC)[C@@H](C)O)C(N)=O)C(=O)O)C(=O)O)C(=O)O [compound 183] (Ac-LEGREKVRAK(Ac)I[Aib][Aib]EG[Nle]STFS[αMeK]RAK(Ac)K([Suc-X8])-NH2),0.08,94
CCCCCCCCCCCCCCCC(=O)N[C@@H](CCC(=O)NCCCC[C@H](NC(=O)CC[C@H](NC(=O)CC[C@H](NC(=O)CC[C@H](NC(=O)CCC(=O)NCCCOCCOCCOCCCNC(=O)CCC(=O)NCCCOCCOCCOCCCNC(=O)CCC(=O)NCCCOCCOCCOCCCNC(=O)[C@H](CCCCNC(C)=O)NC(=O)[C@H](C)NC(=O)[C@H](CCCNC(=N)N)NC(=O)[C@](C)(CCCCN)NC(=O)[C@H](CO)NC(=O)[C@H](Cc1ccccc1)NC(=O)[C@@H](NC(=O)[C@H](CO)NC(=O)[C@H](CCCC)NC(=O)CNC(=O)[C@H](CCC(=O)O)NC(=O)C(C)(C)NC(=O)C(C)(C)NC(=O)[C@@H](NC(=O)[C@H](CCCCNC(C)=O)NC(=O)[C@H](C)NC(=O)[C@H](CCCNC(=N)N)NC(=O)[C@@H](NC(=O)[C@H](CCCCN)NC(=O)[C@H](CCC(=O)O)NC(=O)[C@H](CCCNC(=N)N)NC(=O)CNC(=O)[C@H](CCC(=O)O)NC(=O)[C@H](CC(C)C)NC(C)=O)C(C)C)[C@@H](C)CC)[C@@H](C)O)C(=O)O)C(=O)O)C(=O)O)C(N)=O)C(=O)O [compound 193] (Ac-LEGREKVRAK(Ac)I[Aib][Aib]EG[Nle]STFS[αMeK]RAK(Ac)-X11),0.2,100
CCCCCCCCCCCCCCCCCC(=O)N[C@@H](CCC(=O)N[C@@H](CCC(=O)N[C@@H](CCC(=O)NCCCC[C@H](NC(=O)CCOCCOCCOCCOCCOCCOCCOCCOCCOCCOCCOCCOCCOCCOCCOCCOCCOCCOCCOCCOCCOCCOCCOCCOCCOCCOCCOCCOCCNC(=O)[C@H](CCCCN)NC(=O)[C@H](CCCCN)NC(=O)[C@H](CCCNC(=N)N)NC(=O)C(C)(C)NC(=O)[C@H](CO)NC(=O)[C@H](Cc1c[nH]c2ccccc12)NC(=O)[C@@H](NC(=O)[C@H](CO)NC(=O)[C@H](CCCC)NC(=O)CNC(=O)[C@H](CCC(=O)O)NC(=O)C(C)(C)NC(=O)C(C)(C)NC(=O)[C@@H](NC(=O)[C@H](CCCCNC(C)=O)NC(=O)[C@H](C)NC(=O)[C@H](CCCNC(=N)N)NC(=O)[C@@H](NC(=O)[C@H](CCCCN)NC(=O)[C@H](CCC(=O)O)NC(=O)[C@H](CCCNC(=N)N)NC(=O)CNC(=O)[C@H](CCC(=O)O)NC(=O)[C@H](CC(C)C)NC(C)=O)C(C)C)[C@@H](C)CC)[C@@H](C)O)C(N)=O)C(=O)O)C(=O)O)C(=O)O [compound 48] (Ac-LEGREKVRAK(Ac)I[Aib][Aib]EG[Nle]STWS[Aib]RKK[PEG28]K([γGlu-γGlu-γGlu-Stearoyl])-NH2),,99
CCCCCCCCCCCCCCCCC(=O)N[C@@H](CCC(=O)N[C@@H](CCC(=O)N[C@@H](CCC(=O)NCCOCCOCC(=O)NCCOCCOCC(=O)NCCOCCOCC(=O)NCCCC[C@H](NC(=O)[C@H](CCCCNC(C)=O)NC(=O)[C@H](CCCCN)NC(=O)[C@H](CCCNC(=N)N)NC(=O)C(C)(C)NC(=O)[C@H](CO)NC(=O)[C@H](Cc1c[nH]c2ccccc12)NC(=O)[C@@H](NC(=O)[C@H](CO)NC(=O)[C@H](CCCC)NC(=O)CNC(=O)[C@H](CCC(=O)O)NC(=O)C(C)(C)NC(=O)C(C)(C)NC(=O)[C@@H](NC(=O)[C@H](CCCCNC(C)=O)NC(=O)[C@H](C)NC(=O)[C@H](CCCNC(=N)N)NC(=O)[C@@H](NC(=O)[C@H](CCCCN)NC(=O)[C@H](CCC(=O)O)NC(=O)[C@H](CCCNC(=N)N)NC(=O)CNC(=O)[C@H](CCC(=O)O)NC(=O)[C@H](CC(C)C)NC(C)=O)C(C)C)[C@@H](C)CC)[C@@H](C)O)C(N)=O)C(=O)O)C(=O)O)C(=O)O [compound 164] (Ac-LEGREKVRAK(Ac)I[Aib][Aib]EG[Nle]STWS[Aib]RKK(Ac)K([AEEA-AEEA-AEEA-γGlu-γGlu-γGlu-Heptadecanoyl])-NH2),,93
